Data on 28 molecules can be found in patent US20250197409A1, “BIFUNCTIONAL COMPOUND AND PHARMACEUTICAL COMPOSITION COMPRISING THE BIFUNCTIONAL COMPOUND, AND METHOD FOR TREATING ANDROGEN RECEPTOR RELATED DISEASE BY USING THE SAME” (ANHORN MEDICINES CO., LTD., priority 2022, published 2025).

The target of this assay is T1, androgen receptor (Homo sapiens, UniProt P10275, T878A).
T1 construct: host or cells: LNCaP.FGC
In words: Androgen receptor degradation assay using Western blot analysis. It is filed as cell-based. The gist of the method: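 LNCaP.FGC cells (2×10^5/well) treated with 10-fold serial dilutions in RPMI from 100 nM stock; untreated cells as negative control. AR Western signal normalized to GAPDH, expressed as % remaining versus untreated (100%). DC50 derived from calibration curve of serial dilutions.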

The mark [1] stands for this setting: 24 h, read-out: Androgen Receptor Remaining (%), LNCaP.FGC cells, 100 nM, 24 hr, normalized to GAPDH, untreated cells = 100%.
The mark [2] stands for this setting: read-out: AR DC50 (concentration needed for 50% AR degradation); LNCaP.FGC cells, serial 10x dilutions from 100 nM.
Where [3] appears, read: 24 h, LNCaP.FGC cells, 100 nM, 24 hr, normalized to GAPDH, untreated cells = 100%; read-out: Androgen Receptor Remaining (%).
[4] abbreviates: LNCaP.FGC cells, serial 10x dilutions from 100 nM; read-out: AR DC50 (concentration needed for 50% AR degradation).
[5] abbreviates: LNCaP.FGC cells, 100 nM, 24 hr, normalized to GAPDH, untreated cells = 100%.

Molecules are shown by their SMILES. Where two headings read alike, the source gives them in different places. Bounds are passed on as bounds.

T1 sequence (P10275 whole entry T878A): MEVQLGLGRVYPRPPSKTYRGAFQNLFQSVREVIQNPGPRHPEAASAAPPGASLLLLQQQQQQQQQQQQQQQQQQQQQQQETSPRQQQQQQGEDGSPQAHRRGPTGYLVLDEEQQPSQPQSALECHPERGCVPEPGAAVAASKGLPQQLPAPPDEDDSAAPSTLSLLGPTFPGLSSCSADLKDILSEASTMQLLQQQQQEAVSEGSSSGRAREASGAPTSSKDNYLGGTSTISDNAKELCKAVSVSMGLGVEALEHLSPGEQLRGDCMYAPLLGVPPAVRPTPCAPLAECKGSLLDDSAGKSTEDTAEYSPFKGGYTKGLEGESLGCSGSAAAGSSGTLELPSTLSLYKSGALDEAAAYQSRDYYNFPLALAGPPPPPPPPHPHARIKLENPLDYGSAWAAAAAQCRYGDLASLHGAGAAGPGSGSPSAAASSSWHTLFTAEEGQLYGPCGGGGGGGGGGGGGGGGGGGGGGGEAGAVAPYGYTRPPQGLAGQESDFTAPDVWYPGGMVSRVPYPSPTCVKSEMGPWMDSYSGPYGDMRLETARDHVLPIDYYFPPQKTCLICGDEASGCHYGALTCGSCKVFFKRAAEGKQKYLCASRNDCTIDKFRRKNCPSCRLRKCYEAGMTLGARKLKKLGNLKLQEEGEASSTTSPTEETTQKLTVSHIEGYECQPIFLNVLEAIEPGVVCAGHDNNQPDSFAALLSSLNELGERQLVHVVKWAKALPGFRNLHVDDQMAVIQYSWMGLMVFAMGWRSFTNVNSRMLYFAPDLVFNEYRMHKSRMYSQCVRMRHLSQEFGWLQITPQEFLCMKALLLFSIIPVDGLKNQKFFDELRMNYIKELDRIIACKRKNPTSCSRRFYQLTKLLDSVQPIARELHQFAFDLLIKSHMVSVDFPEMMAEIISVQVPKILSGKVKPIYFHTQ
T1 sequence (Q96SW2 whole entry partner): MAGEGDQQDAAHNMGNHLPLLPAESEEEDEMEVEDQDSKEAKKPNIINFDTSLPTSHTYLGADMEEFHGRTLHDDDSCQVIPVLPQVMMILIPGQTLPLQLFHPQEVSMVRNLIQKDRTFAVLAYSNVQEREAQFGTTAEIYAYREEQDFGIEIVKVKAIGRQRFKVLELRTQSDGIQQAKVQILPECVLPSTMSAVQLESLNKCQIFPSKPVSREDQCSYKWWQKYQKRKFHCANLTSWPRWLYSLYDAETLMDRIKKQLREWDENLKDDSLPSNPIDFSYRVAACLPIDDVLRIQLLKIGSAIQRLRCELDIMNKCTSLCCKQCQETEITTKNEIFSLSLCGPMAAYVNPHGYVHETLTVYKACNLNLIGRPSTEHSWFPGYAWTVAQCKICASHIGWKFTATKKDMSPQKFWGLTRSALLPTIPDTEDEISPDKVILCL

Turning to `CCn1c2c(c3ccc(OCCN4CCN(c5ccc(C(=O)N[C@H]6CC[C@H](Oc7ccc(C#N)c(Cl)c7)CC6)cn5)CC4)cc31)C(=O)N(C1CCC(=O)NC1=O)C2=O` (stereo partly shown) [Compound 31], the remaining activity at 0.1 µM under setting [1] was 47%. The DC50 under setting [2] fell in the range of 25 to 100 nM. Take `Cn1c2c(c3ccc(OCCN4CCC5(CC4)CN(c4ccc(C(=O)N[C@H]6CC[C@H](Oc7ccc(C#N)c(Cl)c7)CC6)nn4)C5)cc31)C(=O)N(C1CCC(=O)NC1=O)C2=O` (stereo partly shown) [Compound 88]: the remaining activity at 0.1 µM under setting [3] was determined as 10%. Moreover, the DC50 under setting [4] was 10 to 25 nM.

For the molecule `CCn1c2c(c3ccc(OCCCN4CCN(c5ncc(C(=O)N[C@H]6CC[C@H](Oc7ccc(C#N)c(Cl)c7)CC6)cn5)CC4)cc31)C(=O)N(C1CCC(=O)NC1=O)C2=O` (stereo partly shown) [Compound 220], the DC50 under setting [2] lay within 25 to 100 nM.

Consider `CCn1c2c(c3ccc(OCCCN4CCC5(C4)CN(c4ccc(C(=O)N[C@H]6CC[C@H](Oc7ccc(C#N)c(Cl)c7)CC6)nn4)C5)cc31)C(=O)N(C1CCC(=O)NC1=O)C2=O` (stereo partly shown) [Compound 160], for which the remaining activity at 0.1 µM under setting [1] was determined as 17%. The DC50 under setting [2] is below 10 nM. As for `C=Nc1ccc(O[C@H]2CC[C@H](NC(=O)c3ccc(N4CC5(CCN(CCCOc6ccc7c8c(n(CC(F)F)c7c6)C(=O)N(C6CCC(=O)NC6=O)C8=O)CC5)C4)nn3)CC2)cc1Cl` (stereo partly shown) [Compound 93], the remaining activity at 0.1 µM under setting [1] stood at 11%. Moreover, under setting [2], the DC50 is 25 to 100 nM.

In the case of `Cn1c2c(c3ccc(OCCOC4CC5(CCN(c6ccc(C(=O)N[C@H]7CC[C@H](N(C)c8ccc(C#N)c(Cl)c8)CC7)nn6)CC5)C4)cc31)C(=O)N(C1CCC(=O)NC1=O)C2=O` (stereo partly shown) [Compound 171], the DC50 under setting [2] was in the range of 25 to 100 nM.

Regarding `CCn1c2c(c3ccc(OCC(C)COC4CCN(c5ccc(C(=O)N[C@H]6CC[C@H](Oc7ccc(C#N)c(Cl)c7)CC6)nn5)CC4)cc31)C(=O)N(C1CCC(=O)NC1=O)C2=O` (stereo partly shown) [Compound 36], the DC50 under setting [2] is 10 to 25 nM.

As for `Cn1c2c(c3ccc(OCCCN4CCN(c5ccc(C(=O)N[C@H]6CC[C@H](Oc7ccc(C#N)c(Cl)c7)CC6)nn5)CC4)cc31)C(=O)N(C1CCC(=O)NC1=O)C2=O` (stereo partly shown) [Compound 39], the remaining activity at 0.1 µM under setting [3] came out at 16%. Moreover, under setting [4], the DC50 fell in the range of 10 to 25 nM.

`CCn1c2c(c3ccc(OCCCC4CCN(c5ccc(C(=O)N[C@H]6CC[C@H](N(C)c7ccc(C#N)c(Cl)c7)CC6)nn5)CC4)cc31)C(=O)N(C1CCC(=O)NC1=O)C2=O` (stereo partly shown) [Compound 165]: the remaining activity at 0.1 µM under setting [1] was found to be 77%.

As for `CCn1c2c(c3ccc(OCC(=O)N4CCCN(c5ccc(C(=O)N[C@H]6CC[C@H](N(C)c7ccc(C#N)c(Cl)c7)CC6)nn5)CC4)cc31)C(=O)N(C1CCC(=O)N(CO)C1=O)C2=O` (stereo partly shown) [Compound 130], under setting [1], the remaining activity at 0.1 µM was determined as 51%. The same measure, in the same setting: for `CCCn1c2c(c3ccc(OCCCN4CCN(c5ccc(C(=O)N[C@H]6C(C)(C)[C@H](Oc7ccc(C#N)c(Cl)c7)C6(C)C)cc5)CC4)cc31)C(=O)N(C1CCC(=O)NC1=O)C2=O` (stereo partly shown) [Compound 23] the value was 88%. Regarding `CCn1c2c(c3ccc(OC4CCN(CC5CCN(c6ccc(C(=O)N[C@H]7C(C)(C)[C@H](Oc8ccc(C#N)c(Cl)c8)C7(C)C)cc6)CC5)CC4)cc31)C(=O)N(C1CCC(=O)NC1=O)C2=O` (stereo partly shown) [Compound 214], the DC50 under setting [2] is above 100 nM. As to `CCn1c2c(c3ccc(OCCOCCN4CCN(c5ccc(C(=O)N[C@H]6CC[C@H](Oc7ccc(C#N)c(Cl)c7)CC6)nn5)CC4)cc31)C(=O)N(C1CCC(=O)NC1=O)C2=O` (stereo partly shown) [Compound 115], the “Androgen Receptor Remaining (%)” value under setting [5] is given as 26%. In addition, the DC50 under setting [2] is 25 to 100 nM. Consider `CCn1c2c(c3ccc(OCCCN4CC=C(c5ccc(C(=O)N[C@H]6CC[C@H](Oc7ccc(C#N)c(Cl)c7)CC6)nn5)CC4)cc31)C(=O)N(C1CCC(=O)NC1=O)C2=O` (stereo partly shown) [Compound 190], for which the DC50 under setting [2] lay within 10 to 25 nM.

For `Cn1c2c(c3ccc(OCCN4CCCN(c5ccc(C(=O)N[C@H]6CC[C@H](Oc7ccc(C#N)c(Cl)c7)CC6)nn5)CC4)cc31)C(=O)N(C1CCC(=O)NC1=O)C2=O` (stereo partly shown) [Compound 75], under setting [3], the remaining activity at 0.1 µM was found to be 26%. For the same molecule, the DC50 under setting [4] is 10 to 25 nM. With `CCn1c2c(c3ccc(OCCCN4CC5(CCN(c6ccc(C(=O)N[C@H]7CC[C@H](Oc8ccc(C#N)c(Cl)c8)CC7)nn6)CC5)C4)cc31)C(=O)N(C1CCC(=O)NC1=O)C2=O` (stereo partly shown) [Compound 96], the “Androgen Receptor Remaining (%)” value under setting [5] worked out at 1%. The DC50 under setting [2] lay within 10 to 25 nM. In the case of `Cn1c2c(c3ccc(OC4CCN(CC5CCN(c6ccc(C(=O)N[C@H]7CC[C@@H](Oc8ccc(C#N)c(Cl)c8)CC7)nn6)CC5)CC4)cc31)C(=O)N(C1CCC(=O)NC1=O)C2=O` (stereo partly shown) [Compound 216], under setting [4], the DC50 is below 10 nM. As for `CCn1c2c(c3ccc(OCCN4CCCN(c5ccc(C(=O)N[C@H]6C(C)(C)[C@H](Oc7ccc(C#N)c(Cl)c7)C6(C)C)nn5)CC4)cc31)C(=O)N(C1CCC(=O)NC1=O)C2=O` (stereo partly shown) [Compound 53], the remaining activity at 0.1 µM under setting [1] is 77%.

As to `Cn1c2c(c3ccc(NC(=O)CN4CCC5(CC4)CN(c4ccc(C(=O)N[C@H]6C(C)(C)[C@H](Oc7ccc(C#N)c(Cl)c7)C6(C)C)nn4)C5)cc31)C(=O)N(C1CCC(=O)NC1=O)C2=O` (stereo partly shown) [Compound 69], under setting [3], the remaining activity at 0.1 µM was determined as 51%.

For `CCn1c2c(c3ccc(OCC(=O)N4CCC5(CC4)CN(c4ccc(C(=O)N[C@H]6CC[C@H](N(C)c7ccc(C#N)c(Cl)c7)CC6)nn4)C5)cc31)C(=O)N(C1CCC(=O)N(CO)C1=O)C2=O` (stereo partly shown) [Compound 128], under setting [1], the remaining activity at 0.1 µM was found to be 63%. As for `CCn1c2c(c3ccc(OCCCN4CCN(c5ccc(C(=O)N[C@H]6CC[C@H](Oc7ccc(C#N)c(Cl)c7)CC6)nn5)C[C@H]4C)cc31)C(=O)N(C1CCC(=O)NC1=O)C2=O` (stereo partly shown) [Compound 74], under setting [1], the remaining activity at 0.1 µM worked out at 40%. The DC50 under setting [2] is 25 to 100 nM. Take `Cn1c2c(c3ccc(OCCCOC4CC5(CCN(c6ccc(C(=O)N[C@H]7CC[C@H](N(C)c8ccc(C#N)c(Cl)c8)CC7)nn6)C5)C4)cc31)C(=O)N(C1CCC(=O)NC1=O)C2=O` (stereo partly shown) [Compound 178]: the DC50 under setting [2] lay in the range of 10 to 25 nM. With `CC(C)n1c2c(c3cc(OCCN4CCN(c5ccc(C(=O)N[C@H]6C(C)(C)[C@H](Oc7ccc(C#N)c(Cl)c7)C6(C)C)cn5)CC4)ccc31)C(=O)N(C1CCC(=O)NC1=O)C2=O` (stereo partly shown) [Compound 16], the remaining activity at 0.1 µM under setting [1] was determined as 96%.

Take `CCn1c2c(c3ccc(OCCOC4CC5(CCN(c6ccc(C(=O)N[C@H]7CC[C@H](N(C)c8ccc(C#N)c(Cl)c8)CC7)nn6)CC5)C4)cc31)C(=O)N(C1CCC(=O)NC1=O)C2=O` (stereo partly shown) [Compound 148]: the remaining activity at 0.1 µM under setting [1] turned out to be 30%. The DC50 under setting [2] lay in the range of 10 to 25 nM.

Regarding `CC(C)n1c2c(c3cc(OCCN4CCN(c5ccc(C(=O)N[C@H]6C(C)(C)[C@H](Oc7ccc(C#N)c(Cl)c7)C6(C)C)nc5)CC4)ccc31)C(=O)N(C1CCC(=O)NC1=O)C2=O` (stereo partly shown) [Compound 13], the remaining activity at 0.1 µM under setting [1] amounted to 155%. For the molecule `CCn1c2c(c3ccc(OCCCCCN4CCN(c5ccc(C(=O)N[C@H]6CC[C@H](N(C)c7ccc(C#N)c(Cl)c7)CC6)nn5)CC4)cc31)C(=O)N(C1CCC(=O)NC1=O)C2=O` (stereo partly shown) [Compound 116], the remaining activity at 0.1 µM under setting [1] amounted to 37%. Under setting [2], the DC50 was 25 to 100 nM. For `Cn1c2c(c3ccc(OCCCN4CCC5(CC4)CCN(c4ccc(C(=O)N[C@H]6CC[C@H](N(C)c7ccc(C#N)c(Cl)c7)CC6)nn4)CC5)cc31)C(=O)N(C1CCC(=O)NC1=O)C2=O` (stereo partly shown) [Compound 198], the DC50 under setting [2] was below 10 nM. For `CN(c1ccc(C#N)c(Cl)c1)[C@H]1CC[C@H](NC(=O)c2ccc(N3CCN(CCOc4ccc5c6c(n(CC(F)F)c5c4)C(=O)N(C4CCC(=O)NC4=O)C6=O)CC3)nn2)CC1` (stereo partly shown) [Compound 104], the remaining activity at 0.1 µM under setting [1] amounted to 42%. The DC50 under setting [2] fell in the range of 25 to 100 nM.
